Experimental data as given in ChEMBL document CHEMBL1201862, “PubChem BioAssay data set” (2004).
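Dose response: 5 concentrations. Exposure: 48 h. Format: 96-well plates. Endpoint: linear interpolation; highest concentration if not reached. Abbreviation: GI50, concentration required for 50% inhibition of growth.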 Calls of active or inactive are those of the source. Cut-off read from the data, not from the text of the source: active = GI50 up to about 1.1 µM and inactive = higher.

What was measured:
Assay in all cases: NCI anticancer screen, dose series, 48 h
MOLT-4 = tested on: MOLT-4
HCC 2998 = tested on: HCC 2998
DU-145 = tested on: DU-145
NCI-H23 = tested on: NCI-H23
CCRF-CEM = tested on: CCRF-CEM
UACC-257 = tested on: UACC-257
NCI/ADR-RES = tested on: NCI/ADR-RES
SNB-19 = tested on: SNB-19
OVCAR-3 = tested on: OVCAR-3
T47D = tested on: T47D
ACHN = tested on: ACHN
SN12C = tested on: SN12C
UACC-62 = tested on: UACC-62
CAKI-1 = tested on: CAKI-1
A498 = tested on: A498
BT-549 = tested on: BT-549
M14 = tested on: M14
SNB-75 = tested on: SNB-75
SW-620 = tested on: SW-620
DMS-114 = tested on: DMS-114

CC(C)(C)c1cc(C(P(=O)(c2ccccc2)c2ccccc2)P(=O)(c2ccccc2)c2ccccc2)cc(C(C)(C)C)c1O
GI50 (MOLT-4): 2.88 µM (inactive) | GI50 (HCC 2998): 1.72 µM (inactive) | GI50 (DU-145): 3.3 µM (inactive) | GI50 (NCI-H23): 2.84 µM (inactive) | GI50 (CCRF-CEM): 2.21 µM (inactive) | GI50 (UACC-257): 2.04 µM (inactive) | GI50 (NCI/ADR-RES): 2.12 µM (inactive) | GI50 (SNB-19): 3.44 µM (inactive) | GI50 (OVCAR-3): 2.3 µM (inactive) | GI50 (T47D): 2.9 µM (inactive) | GI50 (ACHN): 3.18 µM (inactive) | GI50 (SN12C): 3.39 µM (inactive) | GI50 (UACC-62): 1.58 µM (inactive) | GI50 (CAKI-1): 3.85 µM (inactive) | GI50 (A498): 2.74 µM (inactive) | GI50 (BT-549): 3.36 µM (inactive) | GI50 (M14): 1.75 µM (inactive) | GI50 (SNB-75): 2.71 µM (inactive) | GI50 (SW-620): 3.21 µM (inactive)

CC(=O)CCC[C@@H](C)[C@@H]1O[C@H]([C@@]2(C)CCC(=O)O2)C[C@H]2C(CSc3ccccc3)C(=O)O[C@@H]12 (some centres undefined)
GI50 (MOLT-4): 2.96 µM (inactive) | GI50 (HCC 2998): 15.3 µM (inactive) | GI50 (DU-145): 14.6 µM (inactive) | GI50 (NCI-H23): 17.9 µM (inactive) | GI50 (CCRF-CEM): 3.3 µM (inactive) | GI50 (UACC-257): 13.4 µM (inactive) | GI50 (NCI/ADR-RES): 17.7 µM (inactive) | GI50 (SNB-19): 33.4 µM (inactive) | GI50 (OVCAR-3): 13.8 µM (inactive) | GI50 (T47D): 17.9 µM (inactive) | GI50 (ACHN): 14.3 µM (inactive) | GI50 (SN12C): 14.9 µM (inactive) | GI50 (UACC-62): 14.5 µM (inactive) | GI50 (CAKI-1): 12.7 µM (inactive) | GI50 (A498): 27.4 µM (inactive) | GI50 (BT-549): 11.6 µM (inactive) | GI50 (M14): 13.3 µM (inactive) | GI50 (SNB-75): > 40.4 µM (inactive) | GI50 (SW-620): 10.3 µM (inactive)

CC(C)(C)[Si](C)(C)OCC1OC(n2ccc(=O)[nH]c2=O)C(O[Si](C)(C)C(C)(C)C)/C1=N/O (centres undefined)
GI50 (MOLT-4): 2.43 µM (inactive) | GI50 (HCC 2998): 3.37 µM (inactive) | GI50 (DU-145): 9.29 µM (inactive) | GI50 (NCI-H23): 3.44 µM (inactive) | GI50 (CCRF-CEM): 3.29 µM (inactive) | GI50 (UACC-257): 4.17 µM (inactive) | GI50 (NCI/ADR-RES): 2.49 µM (inactive) | GI50 (SNB-19): 4.49 µM (inactive) | GI50 (OVCAR-3): 8.67 µM (inactive) | GI50 (T47D): 6.22 µM (inactive) | GI50 (ACHN): 3.2 µM (inactive) | GI50 (SN12C): 3.3 µM (inactive) | GI50 (UACC-62): 5.96 µM (inactive) | GI50 (CAKI-1): 7.71 µM (inactive) | GI50 (A498): 4.97 µM (inactive) | GI50 (BT-549): 7.6 µM (inactive) | GI50 (M14): 3.33 µM (inactive) | GI50 (SNB-75): 18.5 µM (inactive) | GI50 (SW-620): 4.38 µM (inactive)

Cn1ccnc1Sc1ccc(/C=N/NC(=O)c2ccccc2O)cc1[N+](=O)[O-]
GI50 (MOLT-4): 0.428 µM (active) | GI50 (HCC 2998): 96.4 µM (inactive) | GI50 (DU-145): > 100 µM (inactive) | GI50 (NCI-H23): 56.9 µM (inactive) | GI50 (CCRF-CEM): 37.6 µM (inactive) | GI50 (UACC-257): > 100 µM (inactive) | GI50 (NCI/ADR-RES): > 100 µM (inactive) | GI50 (SNB-19): > 100 µM (inactive) | GI50 (OVCAR-3): > 100 µM (inactive) | GI50 (T47D): 80.2 µM (inactive) | GI50 (ACHN): > 100 µM (inactive) | GI50 (SN12C): 55 µM (inactive) | GI50 (UACC-62): 86.1 µM (inactive) | GI50 (CAKI-1): 72.8 µM (inactive) | GI50 (A498): > 100 µM (inactive) | GI50 (BT-549): 89.7 µM (inactive) | GI50 (M14): > 100 µM (inactive) | GI50 (SNB-75): > 100 µM (inactive) | GI50 (SW-620): > 100 µM (inactive)

O=C(O)CN(CC(=O)O)C1CCCCC1N1CC(=O)OC(=O)C1 (centres undefined)
GI50 (MOLT-4): > 100 µM (inactive) | GI50 (HCC 2998): 74.3 µM (inactive) | GI50 (DU-145): > 100 µM (inactive) | GI50 (NCI-H23): > 100 µM (inactive) | GI50 (CCRF-CEM): > 100 µM (inactive) | GI50 (UACC-257): > 100 µM (inactive) | GI50 (NCI/ADR-RES): > 100 µM (inactive) | GI50 (SNB-19): > 100 µM (inactive) | GI50 (OVCAR-3): > 100 µM (inactive) | GI50 (T47D): 51.3 µM (inactive) | GI50 (ACHN): > 100 µM (inactive) | GI50 (SN12C): > 100 µM (inactive) | GI50 (UACC-62): > 100 µM (inactive) | GI50 (CAKI-1): > 100 µM (inactive) | GI50 (A498): > 100 µM (inactive) | GI50 (BT-549): > 100 µM (inactive) | GI50 (M14): > 100 µM (inactive) | GI50 (SNB-75): 17.2 µM (inactive) | GI50 (SW-620): 42.6 µM (inactive)

COc1ccc2nc3n(c2c1)C(c1c(F)cccc1F)SC3 (centres undefined)
GI50 (MOLT-4): 32.4 µM (inactive) | GI50 (HCC 2998): 78 µM (inactive) | GI50 (DU-145): 42.3 µM (inactive) | GI50 (NCI-H23): 25.9 µM (inactive) | GI50 (CCRF-CEM): 54.1 µM (inactive) | GI50 (UACC-257): > 100 µM (inactive) | GI50 (NCI/ADR-RES): 19.1 µM (inactive) | GI50 (SNB-19): 20.8 µM (inactive) | GI50 (OVCAR-3): 28.6 µM (inactive) | GI50 (T47D): 22.3 µM (inactive) | GI50 (ACHN): 34 µM (inactive) | GI50 (SN12C): > 100 µM (inactive) | GI50 (UACC-62): 56.9 µM (inactive) | GI50 (CAKI-1): 94 µM (inactive) | GI50 (A498): 95.3 µM (inactive) | GI50 (BT-549): > 100 µM (inactive) | GI50 (M14): > 100 µM (inactive) | GI50 (SNB-75): 74.6 µM (inactive) | GI50 (SW-620): 64.6 µM (inactive)

Clc1cc(Cl)cc(C2ON=C(c3ccccc3)N2C23CC4CC(CC(C4)C2)C3)c1 (centres undefined)
GI50 (MOLT-4): > 10 µM (inactive) | GI50 (HCC 2998): > 10 µM (inactive) | GI50 (DU-145): > 10 µM (inactive) | GI50 (NCI-H23): > 10 µM (inactive) | GI50 (CCRF-CEM): > 10 µM (inactive) | GI50 (UACC-257): > 10 µM (inactive) | GI50 (NCI/ADR-RES): > 10 µM (inactive) | GI50 (SNB-19): > 10 µM (inactive) | GI50 (OVCAR-3): > 10 µM (inactive) | GI50 (T47D): > 10 µM (inactive) | GI50 (ACHN): > 10 µM (inactive) | GI50 (SN12C): > 10 µM (inactive) | GI50 (UACC-62): > 10 µM (inactive) | GI50 (CAKI-1): > 10 µM (inactive) | GI50 (A498): > 10 µM (inactive) | GI50 (BT-549): > 10 µM (inactive) | GI50 (M14): > 10 µM (inactive) | GI50 (SNB-75): > 10 µM (inactive) | GI50 (SW-620): > 10 µM (inactive)

CC1(C)OCC2OC3(c4nc(C#N)c(N)o4)OC(C)(C)OC3C2O1 (centres undefined)
GI50 (MOLT-4): > 100 µM (inactive) | GI50 (HCC 2998): > 100 µM (inactive) | GI50 (DU-145): > 100 µM (inactive) | GI50 (NCI-H23): > 100 µM (inactive) | GI50 (CCRF-CEM): > 100 µM (inactive) | GI50 (UACC-257): > 100 µM (inactive) | GI50 (NCI/ADR-RES): > 100 µM (inactive) | GI50 (SNB-19): > 100 µM (inactive) | GI50 (OVCAR-3): > 100 µM (inactive) | GI50 (T47D): > 100 µM (inactive) | GI50 (ACHN): > 100 µM (inactive) | GI50 (SN12C): > 100 µM (inactive) | GI50 (UACC-62): > 100 µM (inactive) | GI50 (CAKI-1): > 100 µM (inactive) | GI50 (A498): > 100 µM (inactive) | GI50 (BT-549): > 100 µM (inactive) | GI50 (M14): > 100 µM (inactive) | GI50 (SNB-75): > 100 µM (inactive) | GI50 (SW-620): > 100 µM (inactive)

C#CCC[C@@H]1O[C@@]1(C)CC/C=C(\C)CC/C=C/C=O
GI50 (MOLT-4): 22.4 µM (inactive) | GI50 (NCI-H23): 29 µM (inactive) | GI50 (DMS-114): 14.6 µM (inactive) | GI50 (CCRF-CEM): 23.3 µM (inactive) | GI50 (UACC-257): 23.6 µM (inactive) | GI50 (SNB-19): 45.1 µM (inactive) | GI50 (OVCAR-3): 29.8 µM (inactive) | GI50 (ACHN): 50.1 µM (inactive) | GI50 (SN12C): 30.3 µM (inactive) | GI50 (UACC-62): 17.9 µM (inactive) | GI50 (M14): 21.3 µM (inactive) | GI50 (SNB-75): 42.6 µM (inactive) | GI50 (SW-620): 23.3 µM (inactive)

C[C@H]1CC[C@]2(NC1)O[C@H]1C[C@H]3[C@@H]4CC[C@H]5C[C@@H](O[C@@H]6O[C@H](CO)[C@H](O[C@@H]7O[C@H](CO)[C@@H](O)[C@H](O[C@@H]8OC[C@@H](O)[C@H](O)[C@H]8O)[C@H]7O[C@@H]7O[C@H](CO)[C@@H](O)[C@H](O)[C@H]7O)[C@H](O)[C@H]6O)CC[C@]5(C)[C@H]4CC[C@]3(C)[C@H]1[C@@H]2C [TOMATINE]
GI50 (MOLT-4): 2.41 µM (inactive) | GI50 (HCC 2998): 0.993 µM (active) | GI50 (DU-145): 1.64 µM (inactive) | GI50 (NCI-H23): 1.65 µM (inactive) | GI50 (CCRF-CEM): 2.52 µM (inactive) | GI50 (UACC-257): 2.12 µM (inactive) | GI50 (NCI/ADR-RES): 1.9 µM (inactive) | GI50 (SNB-19): 1.24 µM (inactive) | GI50 (OVCAR-3): 2.03 µM (inactive) | GI50 (T47D): 1.97 µM (inactive) | GI50 (ACHN): 1.71 µM (inactive) | GI50 (SN12C): 1.43 µM (inactive) | GI50 (UACC-62): 1.01 µM (active) | GI50 (CAKI-1): 0.753 µM (active) | GI50 (A498): 1.87 µM (inactive) | GI50 (BT-549): 2.37 µM (inactive) | GI50 (M14): 1.43 µM (inactive) | GI50 (SNB-75): 1.86 µM (inactive) | GI50 (SW-620): 2.04 µM (inactive)
